Values of other authors as cited in patent US20090191293A1, “Composition for enhancing immunity and reducing inflammation related to infections” (IOMEDI DEVELOPMENT INTERNATIONAL, SRL, priority 2007, published 2009).

Experiments:
NF-κB = settings: treatment of mice
[1] = tested on: nuclear factor kappa B (NF-κB); settings: HL-60-derived neutrophilic cells
[2] = tested on: intercellular adhesion molecule-1; settings: activated by TNF-α
[3] = tested on: LPS-Stimulated Monocytes/Macrophages
[4] = daily supplementation, amounts greater than 100 mg
[5] = tested on: arachidonic acid inflammatory reactions
[6] = tested on: NF-κB dependent signaling pathway; settings: lipopolysaccharide-induced inflammation

For C=CCS[S+]([O-])CC=C (stereo not drawn) [allicin], the “TNF-α mediated T cell adhesion to extracellular matrix components and endothelial cells” value (T cell) is listed as “inhibition of TNF-α mediated T cell adhesion” and the “NF-κB binding to the nucleus” value (NF-κB) is listed as “significantly reduced NF-κB binding to the nucleus”.

In the case of C=C1CC[C@@H]2[C@](C)(CO)[C@H](O)CC[C@@]2(C)[C@@H]1C/C=C1/C(=O)OC[C@H]1O [andrographolide], the “binding of NF-κB to the DNA” value [1] is given as “specifically affects the binding of nuclear factor kappa B (NF-κB) to the DNA” and the “expression of intercellular adhesion molecule-1” value [2] is given as “inhibit expression of intercellular adhesion molecule-1”.

In the case of CC1=C(/C=C/C(C)=C/C=C/C(C)=C/C(=O)O)C(C)(C)CCC1 [all trans-retinoic acid (atRA), all trans-retinoic acid], the “production of IL-10” value [3] is listed as “enhancing the production of the immune modulating cytokine, IL-10” and the “production of pro-inflammatory cytokines (IL-12 and TNF-α)” value [3] is listed as “lower the production of pro-inflammatory cytokines”.

For O=C1O[C@H]([C@@H](O)CO)C(O)=C1O [ascorbic acid, L-ascorbic acid], the “incidence, severity and integrated morbidity of the common cold” value [4] is listed as “lowers the incidence, severity and integrated morbidity of the common cold”.

In the case of Oc1cc(O)c2c(c1)O[C@H](c1ccc(O)c(O)c1)[C@H](O)[C@H]2c1c(O)cc(O)c2c1O[C@H](c1ccc(O)c(O)c1)[C@H](O)C2 [Procyanidin B(2)], the “arachidonic acid inflammatory reactions” value [5] is listed as “strongly inhibit arachidonic acid inflammatory reactions”.

In the case of OC[C@H]1O[C@@H](Oc2cc3c(O)cc(O)cc3[o+]c2-c2ccc(O)c(O)c2)[C@H](O)[C@@H](O)[C@@H]1O [Example C3G, cyanidin-3-glucoside], the “NF-κB dependent signaling pathway” value [6] is given as “inhibit the NF-κB dependent signaling pathway”.
